Assay results published in publication PMC10820135, “Pharmacokinetic, Tissue Distribution, Metabolite, and Toxicity Evaluation of the Matrine Derivative, (6aS, 10S, 11aR, 11bR, 11cS)-10-Methylaminododecahydro-3a, 7a-Diaza-benzo (de) Anthracene-8-thione” (Molecules, 2024).
Entries after “also recorded” stand apart in the source; their conditions may differ. Like-named read-outs stand apart in the source and are kept apart here.

Key:
[1] = Plasma pharmacokinetics of MASM in rats, non-compartmental analysis; assay type: in vivo, Sprague-Dawley rats; conditions: rat
Procedure: UHPLC analysis was performed using a Thermo Accela AS system, employing an ACQUITY UPLC®BEH C18 (Waters Corporation, Wexfords, Ireland) (1.7 µm, 2.1 × 100 mm) column and a binary solvent system consisting of water containing 0.1% formic acid as mobile phase A and acetonitrile as mobile phase B. For pharmacokinetic evaluation, the gradient elution was set as follows: 97% A from 0 to 2 min, 97–70% A from 2 to 3 min, 70–20% A from 3 to 3.5 min, 20% A from 3.5 to 3.6 min, 20–97% A from 3.6 to 3.7 min, and 97% A from 3.7 to 5 min. For the metabolic test, the gradient elution in full scan mode was set as follows: 97% A from 0 to 2 min, 97–70% A from 2 to 4 min, 70–20% A from 4 to 6 min, 20% A from 6 to 7 min, 20–97% A from 7 to 8 min, and 97% A from 8 to 10 min. The flow rate was 0.2 mL/min, with a temperature of 40 °C maintained and an injection volume of 5 μL. The QQQ-MS/MS analysis was conducted using a Thermo TSQ QUANTUM ACCESS MAX system equipped with an electrospray ionization (ESI) source. The spray voltages were set at 4.0 kV and 2.5 kV for positive and negative ion modes, respectively; capillary and vaporizer temperatures were 320 °C and 350 °C, respectively; sheath and aux gas pressures were 35 and 10 psi, respectively.
A precisely measured MASM sample weighing 400 mg was dissolved in normal saline to create aqueous solutions with concentrations of 8.0, 6.0, and 1.5 mg/mL for intraperitoneal, oral, and intravenous administrations at doses of 80 mg/kg, 60 mg/kg, and 15 mg/kg, respectively.
Seventy Sprague-Dawley rats were fasted overnight before dosing, with free access to water. Subsequently, the rats were randomly and equally divided into 7 groups: the control groups received 3 different routes of administration: intravenous, intraperitoneal, and intragastric (NS, saline 1 mL/100 g); MASM intraperitoneal group (A, i.p. 80 mg/kg), MASM intragastrical group (B, i.g. 60 mg/kg), MASM intravenous group (C, i.v. 15 mg/kg), and DMASM intragastrical group (D, i.g. 60 mg/kg). It is important to note that the recommended clinical dose of matrine injection is 0.15 g, which is equivalent to a dosage of 15 mg/kg in rats. MASM was administered via tail vein injection at a dosage of 1 mL/100 g for intravenous dosing, while for intraperitoneal dosing, MASM was injected at the lower-right side of the abdomen of rats. Blood samples (approximately 0.3 mL) were collected from the eye socket at specific time intervals (0.083, 0.167, 0.25, 0.5, 1, 1.5, 2, 4, 6, 9, 12, and 24 h) after administration for each group. These samples were then placed in centrifuge tubes containing heparin sodium, subjected to centrifugation at 4000 rpm for 15 min, and the resulting supernatant was collected and stored at −80 °C until further analysis. During the analysis of the plasma sample, protein precipitation was carried out using a plasma-to-acetonitrile ratio of 1:3, and 5μL of the resulting supernatant was injected. The developed UHPLC-QQQ-MS/MS analysis method underwent a series of validations, and the peak area of the plasma sample was obtained employing the Xcalibur 2.2 data-processing system. The concentrations of MASM in plasma were then determined using linear regression equations. Subsequently, the in vivo pharmacokinetic parameters were calculated using the non-compartment model in DAS 3.0 software. Blood concentration–time curves were generated using Prism 8.0 (GraphPad Software Inc., San Diego, CA, USA).

[2] = Acute toxicity of MASM in mice via intravenous administration; assay type: in vivo; conditions: ICR, mouse, in vivo, iv, mice, intravenous
Procedure: (§1) All mice were administered MASM intravenously. The body weight of each mouse was measured on days 7 and 14. On the 14th day, all mice were euthanized, and the heart, liver, spleen, lung, and kidney were collected and weighed immediately. Serum was collected from the eyeballs for further biochemical analysis, and a small portion of each tissue and organ was fixed in 4% […] solution for histopathological examination. Bar graphs were generated applying Prism 8.0 (GraphPad Software Inc., San Diego, CA, USA), and HE staining samples were captured using the Leica image system.

ICR mice = test: as above; assay type: in vivo
Procedure: as §1

[3] = Sprague-Dawley, plasma, iv, i.v. 15 mg/kg, n = 6, mean ± SD
[4] = i.g. 60 mg/kg, n = 6, mean ± SD
[5] = i.p. 80 mg/kg, n = 6, mean ± SD

## CNC1CC(=S)N2CC3CCCN4CCCC(C34)C2C1 [MASM, (6aS, 10S, 11aR, 11bR, 11cS)-10-methylaminododecahydro-3a, 7a-diaza-benzo (de) anthracene-8-thione]
[1]; Sprague-Dawley, plasma, intraperitoneal, i.p. 80 mg/kg vs i.v. 15 mg/kg, n = 6, mean ± SD, read-out: F(%) bioavailability
  bioavailability: 54 ± 19.4%
[1]; Sprague-Dawley, plasma, ip, i.p. 80 mg/kg, n = 6, mean ± SD
  Cmax: 2210 ± 930 ng/mL
[1]; Sprague-Dawley, plasma, ip, i.p. 80 mg/kg, n = 6, mean ± SD, read-out: t 1/2 (elimination half-life) (converted)
  half-life: 9.97 ± 3.95 h
[1]; [3]
  Cmax: 780 ± 540 ng/mL
  clearance: 71.7 mL/min/kg
[1]; Sprague-Dawley, plasma, iv, i.v. 15 mg/kg, n = 6, mean ± SD, read-out: V d (apparent volume of distribution)
  Vd: 36.6 ± 17.8 L/kg
[1]; Sprague-Dawley, plasma, iv, i.v. 15 mg/kg, n = 6, mean ± SD, read-out: t 1/2 (elimination half-life) (converted)
  half-life: 10.5 ± 8.84 h
[1]; Sprague-Dawley, plasma, oral, i.g. 60 mg/kg vs i.v. 15 mg/kg, n = 6, mean ± SD, read-out: F(%) absolute intragastrical bioavailability
  bioavailability: 44.5 ± 12.3%
[1]; Sprague-Dawley, plasma, other: intravenous, intravenous, intraperitoneal or intragastric, read-out: t1/2 regardless of the route of administration (converted)
  half-life: ~10 h
[1]; Sprague-Dawley, plasma, po, i.g. 60 mg/kg, n = 6, mean ± SD
  Cmax: 1380 ± 570 ng/mL
[1]; Sprague-Dawley, plasma, po, i.g. 60 mg/kg, n = 6, mean ± SD, read-out: t 1/2 (elimination half-life) (converted)
  half-life: 10.2 ± 4.95 h
[1]; Sprague-Dawley, plasma, ip, 80 mg/kg, i.p. 80 mg/kg, n = 6, mean ± SD
  Tmax: 0.21 ± 0.04 h
[1]; Sprague-Dawley, plasma, ip, 80 mg/kg, i.p. 80 mg/kg, n = 6, mean ± SD, read-out: AUC(0–24)
  AUC(0-t): 15600 ± 5610 ng·h/mL
[1]; Sprague-Dawley, plasma, ip, 80 mg/kg, i.p. 80 mg/kg, n = 6, mean ± SD, read-out: AUC(0–t)
  AUC(0-t): 12400 ± 5320 ng·h/mL
[1]; Sprague-Dawley, plasma, iv, 15 mg/kg, i.v. 15 mg/kg, n = 6, mean ± SD
  Tmax: 0.17 ± 0.17 h
[1]; Sprague-Dawley, plasma, iv, 15 mg/kg, i.v. 15 mg/kg, n = 6, mean ± SD, read-out: AUC(0–24)
  AUC(0-t): 5410 ± 3220 ng·h/mL
[1]; Sprague-Dawley, plasma, iv, 15 mg/kg, i.v. 15 mg/kg, n = 6, mean ± SD, read-out: AUC(0–t)
  AUC(0-t): 4280 ± 2400 ng·h/mL
[1]; Sprague-Dawley, plasma, po, 60 mg/kg, i.g. 60 mg/kg, n = 6, mean ± SD
  Tmax: 1.3 h
[1]; Sprague-Dawley, plasma, po, 60 mg/kg, i.g. 60 mg/kg, n = 6, mean ± SD, read-out: AUC(0–24)
  AUC(0-t): 13700 ± 7550 ng·h/mL
[1]; Sprague-Dawley, plasma, po, 60 mg/kg, i.g. 60 mg/kg, n = 6, mean ± SD, read-out: AUC(0–t)
  AUC(0-t): 10900 ± 4780 ng·h/mL
[1]; [4]
  CL: 93.3 ± 49 mL/min/kg
  V d (apparent volume of distribution): 69.43 ± 22.58 L/kg
[1]; [5]
  CL: 95.5 ± 33.8 mL/min/kg
  V d (apparent volume of distribution): 84.74 ± 57.17 L/kg
[2]; 14-day observation, read-out: LD50
  LD50 at 14 day: 94.2 mg/kg
[2]; read-out: LD50, 95% confidence interval
  LD50 at 14 day: 70.8 to 129 mg/kg
ICR mice; day 14, vs control group, all dosages
  viscera indices (visceral weight to body weight) of heart, liver, spleen, lung, kidney: no significant alterations; also recorded: remained unchanged
ICR mice; high (240 mg/kg) and medium-high (144 mg/kg) dose groups
  heart histopathology (HE staining): noticeable increase in myocardial fiber density
ICR mice; high and medium-high dose groups vs control
  spleen histopathology (HE staining): slight increase in the count of splenic sinusoids and lymph nodes
ICR mice; high and medium-high dose groups, accompanied by portal area bleeding
  liver histopathology (HE staining): noteworthy escalation in the number of hepatocytes
ICR mice; high-dose group (240 mg/kg)
  kidney histopathology (HE staining): proliferation and dense arrangement, accompanied by evident bleeding
  lung histopathology (HE staining), alveolar cavity: widened, accompanied by hemorrhaging
ICR mice; medium-dose to low-dose groups
  lung histopathology (HE staining), alveolar wall: slight thinning
ICR mice; medium-high and medium-dose groups
  kidney histopathology, renal interstitial blood vessels: proliferation and dilation
ICR mice; mice, day 14, p > 0.05
  ALP activity in plasma vs control: no statistically significant differences
  ALT activity in plasma vs control: no statistically significant differences
  AST activity in plasma vs control: no statistically significant differences
  albumin (ALB) level in plasma vs control: no statistically significant differences
  creatinine (CREA) level in plasma vs control: statistically indistinguishable from those of the control group; also recorded: no statistically significant differences
  total protein (TP) level in plasma vs control: no statistically significant differences
  urea (UREA) level in plasma vs control: statistically indistinguishable from those of the control group; also recorded: no statistically significant differences
ICR mice; mice, intravenous
  symptoms upon death: convulsions, increased salivary secretion, urination, and defecation
ICR mice; particularly low (31.1 mg/kg), medium-low (51.84 mg/kg), medium (86.4 mg/kg) dose groups
  overall histopathological changes of primary organs: no significant alterations; also recorded: no substantial pathological alterations; also recorded: did not reveal any significant pathological changes
